Earlier results on one compound are cited in PubChem BioAssay AID1259410 (Chemical Carcinogenesis Research Information System (CCRIS), 2018).

Each structure is given as a SMILES string.

In the series the test system is rodent tumor promotion studies, tumor incidence. As to the kind of experiment: CCRIS tumor promotion studies. Particulars: Route [Promoter]: ORAL.

For the compound `CCC1(c2ccccc2)C(=O)NC(=O)NC1=O`, the outcome by setting is: (Carcinogen: DIMETHYLNITROSAMINE, 62-75-9, Doses [Carcinogen]: 5 UG/G ONCE, Doses [Promoter]: 0, 500 PPM IN THE DRINKING WATER FOR 24 WK BEGINNING POST CARCINOGEN DOSE (STUDY DURATION: 26 WK), Route [Carcinogen]: INTRAPERITONEAL, Species: MOUSE, Strain/Sex: B6C3F1/MALE) “liver: adenoma”; (Carcinogen: METHYL(ACETOXYMETHYL)NITROSAMINE, 56856-83-8, Doses [Carcinogen]: 0.05 MMOL/KG IN 5 ML STERILE PHOSPHATE BUFFER ONCE, Doses [Promoter]: 0, 500 PPM IN DRINKING WATER BEGINNING 2 WK POST CARCINOGEN DOSE AND CONTINUING FOR 78 WK (STUDY DURATION: 80 WK), Route [Carcinogen]: INTRAPERITONEAL, Species: RAT, Strain/Sex: F344/MALE) “thyroid: follicular cell adenoma or follicular cell carcinoma or c-cell tumor; l”; (Carcinogen: METHYLNITROSOUREA, Doses [Carcinogen]: 20 MG/KG 2/WK FOR 4 WK, Doses [Promoter]: 0.05% IN DIET FOR 32 WK, Route [Carcinogen]: INTRAPERITONEAL, Species: RAT, Strain/Sex: F344/MALE) “thyroid gland: adenocarcinoma”; (Carcinogen: N,N-DIETHYLNITROSAMINE, 55-18-5, Doses [Carcinogen]: 75 MG/KG IN SALINE ONCE AT 5 WK OF AGE, Doses [Promoter]: 0, 500 PPM IN DIET FOR 45 WK BEGINNING 2 WK POST CARCINOGEN TREATMENT (STUDY DURATION: 47 WK), Route [Carcinogen]: INTRAPERITONEAL, Species: RAT, Strain/Sex: F344/MALE) “liver: hepatocellular adenoma”; (Carcinogen: N,N-DIETHYLNITROSAMINE, 55-18-5, Doses [Carcinogen]: 75 MG/KG IN SALINE ONCE AT 5 WK OF AGE, Doses [Promoter]: 0, 500 PPM IN DIET FOR 46-72 WK BEGINNING 2 WK POST CARCINOGEN TREATMENT (STUDY DURATION: 46-72 WK), Route [Carcinogen]: INTRAPERITONEAL, Species: RAT, Strain/Sex: F344/MALE) “liver: hepatocellular adenoma”; (Carcinogen: N-BIS(2-HYDROXYPROPYL)NITROSAMINE, Doses [Carcinogen]: 70 MG/100 G BW 1/WK FOR 4 OR 6 WK, Doses [Promoter]: 500 PPM IN DIET FROM WK 5-16 OR 7-18, Route [Carcinogen]: SUBCUTANEOUS, Species: RAT, Strain/Sex: WISTAR/MALE) “thyroid gland: follicular, papillary, and solid adenoma, carcinoma”. The outcome reads like this: (Carcinogen: N-METHYL-N-NITROSOUREA, 684-93-5, Doses [Carcinogen]: 30 MG/KG BW ONCE AT 3 MO OF AGE, Doses [Promoter]: 0, 50 MG/100 G IN DIET FOR 7 MO BEGINNING 7 MO POST CARCINOGEN DOSE (STUDY DURATION: 14 MO), Route [Carcinogen]: INTRAVENOUS, Species: RAT, Strain/Sex: LOBUND-WISTAR/MALE) “prostate/seminal vesicle: adenocarcinoma”; (Carcinogen: N-METHYL-N-NITROSOUREA, 684-93-5, Doses [Carcinogen]: 30 MG/KG BW ONCE, Doses [Promoter]: 0, 0.5% IN DIET FOR DURATION OF STUDY BEGINNING POST CARCINOGEN DOSE(STUDY DURATION: 14 MO), Route [Carcinogen]: INTRAVENOUS, Species: RAT, Strain/Sex: LOBUND-WISTAR/MALE) “lung: carcinoma, prostate/seminal vesicles: tumor”; (Carcinogen: N-NITROSODIETHYLAMINE, 55-18-5, Doses [Carcinogen]: 5 UG/G BW ONCE AT 15 D OF AGE, Doses [Promoter]: 0, 500 PPM IN DRINKING WATER BEGINNING AT 4 WK OF AGE AND CONTINUING FOR DURATION OF STUDY (STUDY DURATION: 28 WK), Route [Carcinogen]: INTRAPERITONEAL, Species: MOUSE, Strain/Sex: C3H/HENCR/FEMALE) “liver: hepatocellular adenoma”; (Carcinogen: N-NITROSODIETHYLAMINE, 55-18-5, Doses [Carcinogen]: 5 UG/G BW ONCE AT 15 D OF AGE, Doses [Promoter]: 0, 500 PPM IN DRINKING WATER BEGINNING AT 4 WK OF AGE AND CONTINUING FOR DURATION OF STUDY (STUDY DURATION: 28 WK), Route [Carcinogen]: INTRAPERITONEAL, Species: MOUSE, Strain/Sex: C3H/HENCR/MALE) “liver: hepatocellular adenoma”; (Carcinogen: N-NITROSODIETHYLAMINE, 55-18-5, Doses [Carcinogen]: 75 MG IN STERILE SALINE ONCE, Doses [Promoter]: 0, 500 PPM IN DIET BEGINNING 2 WK POST CARCINOGEN DOSE AND CONTINUING FOR DURATION OF STUDY (STUDY DURATION: 78 WK), Route [Carcinogen]: INTRAPERITONEAL, Species: RAT, Strain/Sex: F344/MALE) “liver: hepatocellular adenoma or carcinoma; thyroid gland: follicular cell adeno”; (Carcinogen: N-NITROSODIETHYLAMINE, 55-18-5, Doses [Carcinogen]: 75 MG ONCE, Doses [Promoter]: 0, 500 PPM IN DRINKING WATER BEGINNING 2 WK POST CARCINOGEN DOSE AND CONTINUING FOR DURATION OF STUDY (STUDY DURATION: 5, Route [Carcinogen]: INTRAPERITONEAL, Species: RAT, Strain/Sex: F344/MALE) “liver: hepatocellular adenoma”. The outcome reads like this: (Carcinogen: N-NITROSODIETHYLAMINE, 55-18-5, Doses [Carcinogen]: 75 MG ONCE, Doses [Promoter]: 0, 500 PPM IN DRINKING WATER BEGINNING 2 WK POST CARCINOGEN DOSE AND CONTINUING FOR DURATION OF STUDY (STUDY DURATION: 7, Route [Carcinogen]: INTRAPERITONEAL, Species: RAT, Strain/Sex: F344/MALE) “liver: hepatocellular carcinoma; thyroid gland: follicular cell adenoma or adeno”; (Carcinogen: N-NITROSODIETHYLAMINE, 55-18-5, Doses [Carcinogen]: 90 MG/KG BW ONCE, Doses [Promoter]: 0, 500 PPM IN DIET FOR 53 WK BEGINNING 2 WK POST CARCINOGEN DOSE (STUDY DURATION: 55 WK), Route [Carcinogen]: INTRAPERITONEAL, Species: MOUSE, Strain/Sex: D2B6F1/MALE) “liver: hepatocellular adenoma, hepatocellular carcinoma, hepatoblastoma”; (Carcinogen: N-NITROSODIETHYLAMINE, 7119-92-8, Doses [Carcinogen]: 80 MG/KG ONCE, Doses [Promoter]: 0, 500 PPM IN DIET BEGINNING 1 WK POST CARCINOGEN DOSE AND CONTINUING FOR 168 D (STUDY DURATION: 259 D), Route [Carcinogen]: INTRAPERITONEAL, Species: MOUSE, Strain/Sex: B6C3F1/MALE) “liver: hepatocellular adenoma or carcinoma”; (Carcinogen: TAMOXIFEN, 10540-29-1, Doses [Carcinogen]: 420 PPM IN DIET FOR 3 MO, Doses [Promoter]: 0, 0.1% (W/V) IN DRINKING WATER FOR LIFE BEGINNING POST CARCINOGEN TREATMENT (STUDY DURATION: LIFETIME), Route [Carcinogen]: ORAL, Species: RAT, Strain/Sex: WISTAR/FEMALE) “liver: tumor”.
